Measurements reported in patent publication US20240425464A1, “Substituted Monohydrazides as Potent Antifungal Agents” (University of Kentucky Research Foundation, priority 2023, published 2024).
In brackets after ≈: the same amount, converted by molar mass.

Experiments:
[1] = system: Candida duobushaemulonii AR Bank #391; experiment: MIC determination by in vitro antifungal assay; type: cell-based; conditions: Candidozyma duobushaemuli, read-out: MIC
Method: (§1) The antifungal agent amphotericin B (AmB) was purchased from VWR (Radnor PA, USA). AmB was dissolved in DMSO at a final concentration of 5 mg/mL and was stored at −20° C., protected from light. Candida albicans American Type Culture Collection (ATCC) 10231 (strain A), C. albicans ATCC 64124 (B), and C. albicans ATCC MYA-2876 (C) were obtained from Utah State University. C. albicans ATCC 90819 (D), C. albicans ATCC MYA-2310 (E), C. albicans ATCC MYA-1237 (F), C. albicans ATCC MYA-1003 (G), Candida glabrata ATCC 2001 (H), Candida krusei ATCC 6258 (I), Candida parapsilosis ATCC 22019 (J), Cryptococcus neoformans ATCC MYA-895 (M), Aspergillus terreus ATCC MYA-3633 (N), and Aspergillus flavus ATCC MYA-3631 (0) were obtained from the American Type Culture Collection (ATCC; Manassas, VA, USA). Aspergillus nidulans ATCC 38163 (P) was obtained from University of Kentucky. Clinically derived Aspergillus fumigatus NRRL 163 (Q), A. fumigatus NRRL 5109 (R), and A. fumigatus NRRL 6113 (S) were obtained from Northern Regional Research Laboratory (NRRL). Candida auris 384 (K), C. auris 390 (L), and fungal strains 381-400 (including 10 C. auris (AR Bank #381-390), 3 Candida duobushaemulonii (AR Bank #391, AR Bank #392, and AR Bank #394), 2 Candida haemulonii (AR Bank #393 and AR Bank #395), 1 Kodameae ohmeri (AR Bank #396), 1 C. krusei (AR Bank #397), 1 Candida lusitaniae (AR Bank #398), and 2 Saccharomyces cerevisiae strains (AR Bank #399 and AR Bank #400)) were part of a larger fungal library from the AR Bank maintained by the Centers for Disease Control and Prevention (CDC; Atlanta, GA, USA). Filamentous fungi and yeasts were cultivated at 35° C. in RPMI 1640 medium (with L-glutamine, without sodium bicarbonate, Sigma-Aldrich, St. Louis, MO) buffered to a pH of 7.0 with 0.165 M morpholinepropanesulfonic acid (MOPS) buffer (Sigma-Aldrich). For cytotoxicity assays, HepG2 and the mouse macrophage cell line J774A.1 were obtained from University of Kentucky. The human embryonic kidney cell line, HEK-293, was bought from the ATCC. Mammalian cells were grown in Dulbecco's Modified Eagle's Medium (DMEM) (from VWR) with 10% fetal bovine serum (FBS) (from VWR) and 1% Pen/Strep (from ATCC). Cell lines were cultured at 37° C. with 5% CO2 and passaged by trypsinization with 0.05% trypsin: 0.53 mM EDTA (from Sigma-Aldrich).
(§2) From the actively growing yeast culture, 100 µL were then transferred to 900 μL of RPMI 1640 medium and re-adjusted to achieve OD600 of 0.12 (˜1×10^6 CFU/mL). The cell suspension was further diluted to achieve 1:100 in RPMI 1640 medium.

[2] = system: Candida duobushaemulonii AR Bank #392; experiment: MIC determination by in vitro antifungal assay; type: cell-based; conditions: Candidozyma duobushaemuli, read-out: MIC
Method: as §1, §2

[3] = system: Candida duobushaemulonii AR Bank #394; experiment: MIC determination by in vitro antifungal assay; type: cell-based; conditions: Candidozyma duobushaemuli, read-out: MIC
Method: as §1, §2

[4] = system: Candida haemulonii AR Bank #393; experiment: MIC determination by in vitro antifungal assay; type: cell-based; conditions: Candidozyma haemuli, read-out: MIC
Method: as §1, §2

[5] = system: Candida haemulonii AR Bank #395; experiment: MIC determination by in vitro antifungal assay; type: cell-based; conditions: Candidozyma haemuli, read-out: MIC
Method: as §1, §2

[6] = system: Candida krusei AR Bank #397; experiment: MIC determination by in vitro antifungal assay; type: cell-based; conditions: Pichia kudriavzevii; Candida strain AR Bank #397; read-out: MIC
Method: as §1, §2

[7] = system: Candida lusitaniae AR Bank #398; experiment: MIC determination by in vitro antifungal assay; type: cell-based; conditions: Clavispora lusitaniae; Candida strain AR Bank #398; read-out: MIC
Method: as §1, §2

[8] = system: Kodameae ohmeri AR Bank #396; experiment: MIC determination by in vitro antifungal assay; type: cell-based; conditions: strain AR Bank #396; read-out: MIC
Method: as §1, §2

[9] = system: Saccharomyces cerevisiae AR Bank #399; experiment: MIC determination by in vitro antifungal assay; type: cell-based; conditions: read-out: MIC
Method: as §1, §2

[10] = system: C. albicans ATCC 10231 (strain A) biofilm formation; experiment: Prevention of biofilm formation assay; type: cell-based, Candida albicans
Method: Biofilm prevention assays were set up identically to the ordinary MIC experiment, where compounds were diluted, and the fungi added. After overnight growth, the plates were washed as in the biofilm disruption assay and stained and measured in the same fashion.
A large amount of fungal cells were exposed to the monohydrazides at time 0 h to evaluate the effect of these compounds in the prevention of Candida biofilm formation (FIG. 5B). […] Although some of these monohydrazides were able to prevent biofilm formation, none of these compounds had any effect in terms of the disruption of already pre-formed biofilms (FIG. 5A).

[11] = system: panel of ten C. auris strains (AR Bank #381-390); experiment: MIC determination, summary over the C. auris panel; type: cell-based, Candida auris; conditions: Candidozyma auris; against all ten C. auris strains tested (AR Bank #381-390)
Method: as §1, §2

[12] = system: ten other fungal strains (AR Bank #391-400); experiment: MIC determination, summary over ten additional fungal strains; type: cell-based; conditions: read-out: MIC range
Method: as §1, §2

| SMILES | MIC [1] [µg/mL] | MIC [2] [µg/mL] | MIC [3] [µg/mL] | MIC [4] [µg/mL] | MIC [5] [µg/mL] | MIC [6] [µg/mL] | MIC [7] [µg/mL] | MIC [8] [µg/mL] | MIC [9] [µg/mL] | concentration active in prevention of biofilm formation [10] [j·tg mL^−1] | MIC [11] [µg/mL] | MIC [12] [µg/mL] | prevention of biofilm formation [10] |
| --- | --- | --- | --- | --- | --- | --- | --- | --- | --- | --- | --- | --- | --- |
| O=C(NNc1ccc(F)cc1)c1ccccn1 [Compound 2d] | 0.49 (≈ 2.12 µM) | 0.49 (≈ 2.12 µM) | 0.24 (≈ 1.04 µM) | 0.24 (≈ 1.04 µM) | 0.12 (≈ 0.519 µM) | 0.24 (≈ 1.04 µM) | 1.95 (≈ 8.43 µM) | 0.24 (≈ 1.04 µM) | 3.9 (≈ 16.9 µM) | 1.96 | 0.12 to 7.8 (≈ 0.519 to 33.7 µM) | 0.06 to 7.8 (≈ 0.259 to 33.7 µM) | – |
| O=C(NNc1cc(Cl)cc(Cl)c1)c1ccccn1 [Compound 2j] | 0.98 (≈ 3.47 µM) | 0.98 (≈ 3.47 µM) | 0.49 (≈ 1.74 µM) | 0.24 (≈ 0.851 µM) | 0.24 (≈ 0.851 µM) | 0.49 (≈ 1.74 µM) | 3.9 (≈ 13.8 µM) | 0.49 (≈ 1.74 µM) | 3.9 (≈ 13.8 µM) | – | 0.12 to 7.8 (≈ 0.425 to 27.6 µM) | 0.06 to 7.8 (≈ 0.213 to 27.6 µM) | not capable of preventing |
